These results are taken from patent US11813305B2, “Endoplasmic reticulum stress as a predictive tool in cancer therapy and a combination therapy for the treatment of cancer” (IMMUNE SYSTEM KEY LTD., priority 2016, dated 2023).

In test [1] the test system is human TNBC cells (human MDA231). The test is described as follows: Triple negative breast cancer tumors in mice. Type of test: in vivo, nude mice. Conditions: doxorubicin alone, once a week at 3 mg/kg, FIG. 14. Here is the method: Therefore, 32 nude mice were inoculated subcutaneously (S.C.) with 9 million human TNBC cells (human MDA231, ATCC) per mouse. Cells were cultured as known in the art, for example, as described above. When the tumors exceeded a volume of 40 mm^3, the mice were randomly divided into five groups, as follows. The “Control” group (n=5) was treated with 5% mannitol; the “dTCApFs” group (n=5) was treated once a week with dTCApFs at 15 mg/kg; the “Dox” group (n=5) was treated once a week with doxorubicin (Sigma Aldrich) at 3 mg/kg; the “dTCApFs+Dox next day” (n=8) group was treated with dTCApFs at 15 mg/kg and 24 hours later also with doxorubicin, at 3 mg/kg; and the “dTCApFs+Dox same day” (n=9) group was treated with dTCApFs at 15 mg/kg and with doxorubicin at 3 mg/kg, on same day.

For the next test, the system named is B16 cells. The test is described as follows: Melanoma tumors in mice, dTCApFs and doxorubicin. Type of test: in vivo, C57bl/6 mice. Conditions: doxorubicin alone, once a week at 3 mg/kg, FIG. 17. How it is done: In order to examine the effect of a combination of dTCApFs and doxorubicin on melanoma tumor volume, the following experiments were performed in mice. C57bl/6 mice (28) were inoculated SC with 0.2 million B16 cells (ATCC) per mouse. B16 melanoma is a murine tumor cell line used for research as a model for human skin cancers. When tumors exceeded a volume of 50 mm^3, the mice were randomly divided into 4 groups, as follows. “Control” group (n=6) was treated with 5% mannitol; “dTCApFs” treated group (n=6) was treated once a week with dTCApFs (at 15 mg/kg); “Dox” treated group (n=6) was treated once a week with doxorubicin (at 3 mg/kg); and dTCApFs+Dox same day” group (n=10) was treated once a week with dTCApFs and doxorubicin (at 15 mg/kg and 3 mg/kg, respectively), when both agents were administered on the same day.

In test [2] the test system is human pancreatic cancer cells (BxPC3). The test is described as follows: BrdU incorporation assay. Conditions: Taxol alone, 2 nM or 4 nM, FIG. 13B. Type of test: cell-based. How it is done: (§1) Cells were placed at 2,000 cells/well in the middle of a 96 well plate with 100 μl DMEM (life science 41965-039) and 10% fetal calf serum (FBS, Biological industries 14-127-1A) for 24 hours in an incubator at 37° C. with 5% CO2. The medium was then replaced to 200 μl DMEM with 2.5% FBS and Taxol (sigma T7402) at a final concentration of 2 nM or 4 nM in DMSO or dTCApFs (nextar ISK353-01 batch 351-01/1.68) at a final concentration of 25 μg/ml in DMSO. The medium in the control cells was replaced by DMEM and FBS as indicated above. The maximal concentration of DMSO in the cell wells was less than 0.5%. Four wells were used for each concentration.
(§2) Taxol- and dTCApFs-treated cells as well as the control cells were further incubated for 24 hours in the presence of BrdU as follows: 20 μl BrdU reagent (diluted 1:100 in DMEM supplemented with 2.5% FBS) was added to the cells and the plate was incubated 24 hours in 37° degrees incubator with 5% CO2. BrdU ELISA was performed according to the kit protocol (Millipore #2752).
(§3) Cells were placed at 2000 cells/well in the middle of a 96 well plate with 100 μl DMEM and 10% FBS for 24 hours in an incubator at 37° C. with 5% CO2. The medium was then replaced to 200 μl DMEM with 2.5% FBS and dTCApFs at a final concentration of 25 μg/ml (nextar ISK353-01 batch 351-01/1.68) in DMSO. The maximal concentration of DMSO in the cells wells was less than 0.5%. […]

The subject of test [3] is human ovarian cancer cells (OV90). The test is described as follows: BrdU incorporation assay. Conditions: Taxol alone, 2 nM or 4 nM, FIG. 13A. Format: cell-based. Here is the method: as §1, §2, §3

Turning to `COc1cccc2c1C(=O)c1c(O)c3c(c(O)c1C2=O)C[C@@](O)(C(=O)CO)C[C@@H]3O[C@H]1C[C@H](N)[C@H](O)[C@H](C)O1` [doxorubicin], the tumor volume result is on record as “clear increase in tumor volume” in test [1] and “tumor volume clearly increased” with B16 cells.
Consider `CC(=O)O[C@H]1C(=O)[C@@]2(C)[C@H]([C@H](OC(=O)c3ccccc3)[C@]3(O)C[C@H](OC(=O)[C@H](O)[C@@H](NC(=O)c4ccccc4)c4ccccc4)C(C)=C1C3(C)C)[C@]1(OC(C)=O)CO[C@@H]1C[C@@H]2O` [Taxol, Paclitaxel], for which the “cell viability (BrdU incorporation)” value in test [2] and in test [3] was “no effect on cell viability was observed” each time.
